In US9034819B2, “Method of lowering cholesterol and triglycerides by administering exendins” (Amylin Pharmaceuticals, LLC, priority 2008, dated 2015):

Experiments:
Assay type in all cases: in vivo, human
[1] = system: total cholesterol, LDL-cholesterol, HDL-cholesterol; assay: Total, LDL- and HDL-cholesterol, 30 week study in patients with Type 2 diabetes; details: SC
Procedure: (§1) The pharmacokinetics of a long-acting release formulation of exenatide was evaluated in a study in patients with Type 2 diabetes. The study population consisted of individuals with type 2 diabetes treated with a stable regimen of oral diabetes medications or managed with diet modification and exercise. […] The 30 week study compared a 10 μg formulation of exenatide administered twice daily (BTD) by subcutaneous (SC) injection and a 2 mg formulation of exenatide administered once weekly by subcutaneous (SC) injection. The study was also conducted, inter alia, to examine the effects of such administration on the individual's total cholesterol, LDL-cholesterol, HDL-cholesterol, triglyceride levels, hemoglobin A1C, fasting postprandial blood glucose, and weight.
During the 3-day lead-in period, patients self-administered exenatide 5 μg SC, BID, within 15 minutes prior to meals in the morning and evening. The exenatide 5 μg SC, BID used in the 3-day lead-in period was a clear, colorless, sterile preserved solution for SC injection containing exenatide (exendin-4) in sodium acetate buffer, pH 4.5, 4.3% mannitol as an iso-osmolality modifier and 0.22% metacresol as a preservative. The strength of exenatide injection was 0.25 mg/mL of exendin-4.
During the 30-week treatment period, patients received once weekly subcutaneous injections of a 2.0 mg dose pharmaceutical formulation containing 5% exenatide or patient received twice daily subcutaneous injections of exenatide at 10 μg per dose.
(§2) Exenatide once weekly is a sustained-release formulation of exenatide (exendin-4) designed to provide exenatide release over a period ranging from 7 to 91 days. […] The vial containing the white to off-white dry powder (2.8 mg of exenatide once weekly) was stored frozen in a freezer with a recorded temperature at ≦−20±5° C. at the study site.
(§3) Patients were monitored about every four weeks for body weight, vital signs (including blood pressure, heart rate, respiratory rate, and temperature), urinalysis, and adverse events. […]

hemoglobin A1C = assay: Hemoglobin A1C by HPLC, 30 week study in patients with Type 2 diabetes; details: decrease from baseline to week 30; SC; once weekly 2 mg or twice daily 10 μg
Procedure: as §1, with “weight. […]” for “weight.”
as §2
Plasma exenatide was quantified by a validated Enzyme-Linked Immunosorbent Assay (ELISA) at Millipore (Billerica, Mass.). […] Glycosylated hemoglobin was quantitated by Quintiles Laboratories (Smyrna, Ga.) using high-performance liquid chromatography. […]

[2] = Body weight, 30 week study in patients with Type 2 diabetes; details: weight loss from baseline to week 30, SC, once weekly 2 mg or twice daily 10 μg
Procedure: as §1, with “weight. […]” for “weight.”
as §2, §3

blood glucose = assay: Fasting postprandial blood glucose, 30 week study in patients with Type 2 diabetes; details: decrease from baseline to week 30; SC; once weekly 2 mg or twice daily 10 μg
Procedure: as §1
During the 3-day lead-in period, patients self-administered exenatide 5 μg SC, BID, within 15 minutes prior to meals in the morning and evening. […]
as §2

fasting triglycerides = assay: Fasting triglycerides, 30 week study in patients with Type 2 diabetes; details: decrease from baseline to week 30; SC; once weekly 2 mg or twice daily 10 μg
Procedure: as §1, with “weight. […]” for “weight.”
as §2, §3

[3] = decrease from baseline to week 30, once weekly 2 mg or twice daily 10 μg

exenatide BID: 10 μg formulation of exenatide (exendin-4) administered twice daily by subcutaneous injection
HDL-cholesterol decreased by an average of [1, 3]: 1.3 mg/dL
total cholesterol decreased by an average of [1, 3]: 3.8 mg/dL
LDL-cholesterol increased by an average of ([1]; increase from baseline to week 30, twice daily 10 μg): 1.2 mg/dL
HbA1C decreased by an average of (hemoglobin A1C): 1.5%
body weight decreased by an average of (weight loss) [2]: about 3.6 kg
body weight decreased by an average of (weight loss) ([2]; listed as exenatide twice daily): 3.6 kg
fasting postprandial blood glucose decreased by an average of (blood glucose): 25 mg/dL
fasting triglycerides decreased by an average of (fasting triglycerides): 22 mg/dL
